{"source": "ChEMBL document CHEMBL4837185", "about": "“Emerimicins V-X, 15-Residue Peptaibols Discovered from an Acremonium sp. through Integrated Genomic and Chemical Approaches” (J Nat Prod, 2021)", "key": {"Pseudomonas aeruginosa": {"test_system": "Pseudomonas aeruginosa", "assay": "Antibacterial activity against Pseudomonas aeruginosa ATCC 27853 assessed as inhibition of bacterial growth measured after 16 to 20 hrs by CLSI broth microdilution method", "format": "functional", "settings": "time 16-20 hrs"}, "Enterococcus faecalis [1]": {"test_system": "Enterococcus faecalis", "assay": "Antibacterial activity against vancomycin-resistant Enterococcus faecalis ATCC 51299 assessed as inhibition of bacterial growth measured after 16 to 20 hrs by CLSI broth microdilution method", "format": "functional", "settings": "time 16-20 hrs"}, "[2]": {"assay": "Toxicity in zebra fish embryo assessed as mortality at 100 ug/ml incubated for 48 hrs", "parameters": "species or system Danio rerio", "settings": "zebrafish, dose 100 µg/ml"}, "Staphylococcus aureus": {"test_system": "Staphylococcus aureus", "assay": "Antibacterial activity against methicillin-resistant Staphylococcus aureus ATCC 1556 assessed as inhibition of bacterial growth measured after 16 to 20 hrs by CLSI broth microdilution method", "format": "functional", "settings": "time 16-20 hrs"}, "Enterococcus faecalis [3]": {"test_system": "Enterococcus faecalis", "assay": "Antibacterial activity against Enterococcus faecalis ATCC 19433 assessed as inhibition of bacterial growth measured after 16 to 20 hrs by CLSI broth microdilution method", "format": "functional", "settings": "time 16-20 hrs"}, "[4]": {"assay": "Toxicity in zebra fish embryo assessed as survival rate at 100 ug/ml incubated for 48 hrs", "parameters": "species or system Danio rerio", "settings": "zebrafish, zebrafish embryos, at 100 µg/mL"}, "[5]": {"assay": "Toxicity in zebra fish embryo assessed as mortality at 33 ug/ml incubated for 48 hrs", "parameters": "species or system Danio rerio", "settings": "zebrafish, dose 33 µg/ml"}}}
{"compound": "CC[C@@](C)(NC(=O)[C@H](CC(C)C)NC(=O)CNC(=O)[C@@](C)(CC)NC(=O)C(C)(C)NC(=O)C(C)(C)NC(=O)C(C)(C)NC(=O)[C@H](CC(C)C)NC(C)=O)C(=O)NC(C)(C)C(=O)N1C[C@H](O)C[C@H]1C(=O)N[C@@H](CCC(N)=O)C(=O)N[C@](C)(CC)C(=O)N1C[C@H](O)C[C@H]1C(=O)NC(C)(C)C(=O)N[C@H](CO)Cc1ccccc1", "values": [{"measurement": "MIC", "setting": "Pseudomonas aeruginosa", "value": "> 100", "unit": "mg/L"}, {"measurement": "MIC", "setting": "Enterococcus faecalis [1]", "value": "> 100", "unit": "mg/L"}, {"measurement": "Activity", "setting": "[2]", "value": "Toxic"}, {"measurement": "MIC", "setting": "Staphylococcus aureus", "value": "> 100", "unit": "mg/L"}, {"measurement": "MIC", "setting": "Enterococcus faecalis [3]", "value": "> 100", "unit": "mg/L"}]}
{"compound": "CC[C@@](C)(NC(=O)[C@H](CC(C)C)NC(=O)CNC(=O)C(C)(C)NC(=O)C(C)(C)NC(=O)C(C)(C)NC(=O)C(C)(C)NC(=O)[C@@H](NC(C)=O)C(C)C)C(=O)NC(C)(C)C(=O)N1C[C@H](O)C[C@H]1C(=O)N[C@@H](CCC(N)=O)C(=O)N[C@](C)(CC)C(=O)N1C[C@H](O)C[C@H]1C(=O)NC(C)(C)C(=O)N[C@H](CO)Cc1ccccc1", "values": [{"measurement": "MIC", "setting": "Pseudomonas aeruginosa", "value": "> 100", "unit": "mg/L"}, {"measurement": "MIC", "setting": "Enterococcus faecalis [1]", "value": "> 100", "unit": "mg/L"}, {"measurement": "MIC", "setting": "Staphylococcus aureus", "value": "> 100", "unit": "mg/L"}, {"measurement": "survival at 48 h, 100 ug/ml", "setting": "[4]", "value": 70, "unit": "%"}, {"measurement": "MIC", "setting": "Enterococcus faecalis [3]", "value": "> 100", "unit": "mg/L"}]}
{"compound": "CC(=O)O[C@H]1C[C@@]2(C)[C@@H](CC[C@H]3[C@@]4(C)C=CC(=O)[C@@H](C)[C@@H]4[C@H](OC(C)=O)C(=O)[C@@]32C)/C1=C(\\CCC=C(C)C)C(=O)O", "note": "[HELVOLIC ACID]", "values": [{"measurement": "MIC", "setting": "Pseudomonas aeruginosa", "value": "> 100", "unit": "mg/L"}, {"measurement": "MIC", "setting": "Enterococcus faecalis [1]", "value": 8, "unit": "mg/L"}, {"measurement": "MIC", "setting": "Staphylococcus aureus", "value": 4, "unit": "mg/L"}, {"measurement": "MIC", "setting": "Enterococcus faecalis [3]", "value": 16, "unit": "mg/L"}]}
{"compound": "CC[C@@](C)(NC(=O)[C@H](CC(C)C)NC(=O)CNC(=O)C(C)(C)NC(=O)C(C)(C)NC(=O)C(C)(C)NC(=O)C(C)(C)NC(=O)[C@H](Cc1ccccc1)NC(C)=O)C(=O)NC(C)(C)C(=O)N1C[C@H](O)C[C@H]1C(=O)N[C@@H](CCC(N)=O)C(=O)N[C@](C)(CC)C(=O)N1C[C@H](O)C[C@H]1C(=O)NC(C)(C)C(=O)N[C@H](CO)Cc1ccccc1", "values": [{"measurement": "MIC", "setting": "Pseudomonas aeruginosa", "value": "> 100", "unit": "mg/L"}, {"measurement": "MIC", "setting": "Enterococcus faecalis [1]", "value": "> 100", "unit": "mg/L"}, {"measurement": "Activity", "setting": "[5]", "value": "Toxic"}, {"measurement": "MIC", "setting": "Staphylococcus aureus", "value": 64, "unit": "mg/L"}, {"measurement": "MIC", "setting": "Enterococcus faecalis [3]", "value": "> 100", "unit": "mg/L"}]}
{"compound": "CC[C@@](C)(NC(=O)[C@H](CC(C)C)NC(=O)CNC(=O)[C@@](C)(CC)NC(=O)C(C)(C)NC(=O)C(C)(C)NC(=O)C(C)(C)NC(=O)[C@H](Cc1ccccc1)NC(C)=O)C(=O)NC(C)(C)C(=O)N1C[C@H](O)C[C@H]1C(=O)N[C@@H](CCC(N)=O)C(=O)N[C@](C)(CC)C(=O)N1C[C@H](O)C[C@H]1C(=O)NC(C)(C)C(=O)N[C@H](CO)Cc1ccccc1", "values": [{"measurement": "MIC", "setting": "Pseudomonas aeruginosa", "value": "> 100", "unit": "mg/L"}, {"measurement": "MIC", "setting": "Enterococcus faecalis [1]", "value": 64, "unit": "mg/L"}, {"measurement": "Activity", "setting": "[5]", "value": "Toxic"}, {"measurement": "MIC", "setting": "Staphylococcus aureus", "value": 32, "unit": "mg/L"}, {"measurement": "MIC", "setting": "Enterococcus faecalis [3]", "value": 64, "unit": "mg/L"}]}
{"compound": "CC[C@@](C)(NC(=O)[C@H](CC(C)C)NC(=O)CNC(=O)C(C)(C)NC(=O)C(C)(C)NC(=O)C(C)(C)NC(=O)C(C)(C)NC(=O)[C@H](CC(C)C)NC(C)=O)C(=O)NC(C)(C)C(=O)N1C[C@H](O)C[C@H]1C(=O)N[C@@H](CCC(N)=O)C(=O)N[C@](C)(CC)C(=O)N1C[C@H](O)C[C@H]1C(=O)NC(C)(C)C(=O)N[C@H](CO)Cc1ccccc1", "values": [{"measurement": "MIC", "setting": "Pseudomonas aeruginosa", "value": "> 100", "unit": "mg/L"}, {"measurement": "MIC", "setting": "Enterococcus faecalis [1]", "value": "> 100", "unit": "mg/L"}, {"measurement": "Activity", "setting": "[2]", "value": "Toxic"}, {"measurement": "MIC", "setting": "Staphylococcus aureus", "value": "> 100", "unit": "mg/L"}, {"measurement": "MIC", "setting": "Enterococcus faecalis [3]", "value": "> 100", "unit": "mg/L"}]}
{"compound": "CC[C@@](C)(NC(=O)[C@H](CC(C)C)NC(=O)CNC(=O)[C@@](C)(CC)NC(=O)C(C)(C)NC(=O)C(C)(C)NC(=O)C(C)(C)NC(=O)[C@@H](NC(C)=O)C(C)C)C(=O)NC(C)(C)C(=O)N1C[C@H](O)C[C@H]1C(=O)N[C@@H](CCC(N)=O)C(=O)N[C@](C)(CC)C(=O)N1C[C@H](O)C[C@H]1C(=O)NC(C)(C)C(=O)N[C@H](CO)Cc1ccccc1", "values": [{"measurement": "MIC", "setting": "Pseudomonas aeruginosa", "value": "> 100", "unit": "mg/L"}, {"measurement": "MIC", "setting": "Enterococcus faecalis [1]", "value": "> 100", "unit": "mg/L"}, {"measurement": "MIC", "setting": "Staphylococcus aureus", "value": "> 100", "unit": "mg/L"}, {"measurement": "survival at 48 h, 100 ug/ml", "setting": "[4]", "value": 75, "unit": "%"}, {"measurement": "MIC", "setting": "Enterococcus faecalis [3]", "value": "> 100", "unit": "mg/L"}]}
{"compound": "GENTAMICIN", "values": [{"measurement": "MIC", "setting": "Pseudomonas aeruginosa", "value": 2, "unit": "mg/L"}, {"measurement": "MIC", "setting": "Enterococcus faecalis [1]", "value": 4, "unit": "mg/L"}, {"measurement": "MIC", "setting": "Staphylococcus aureus", "value": 4, "unit": "mg/L"}, {"measurement": "MIC", "setting": "Enterococcus faecalis [3]", "value": 8, "unit": "mg/L"}]}
